Measured values taken from patent US20050255595A1, “Genetically modified non-human mammal cells, procedure for their production and use in toxicity tests” (priority 2002, published 2005).
Like-named read-outs stand apart in the source and are kept apart here.

Tests used:
[1] = test system: single transgenic HPS70/hGH primary hepatocytes (PHGH); assay: toxicity test, hGH secretion by primary transgenic hepatocytes (PHGH); type: cell-based, mice
Text: On the basis of the results illustrated, for the further analyses, clone no. […] The response to the toxic stress of the clone MMH/GH5 was then compared with the one obtained in single transgenic HPS70/hGH primary hepatocytes (PHGH). A representative sample of the cell line derived from said clone MMH/GH5 was deposited in accordance with and for the purposes of the Treaty of Budapest on the international recognition of deposit of micro-organisms for the purposes of the patents procedure with the AID “Centro di Biotecnologie Avanzate (CBA), Interlab Cell Line Collection (ICLC)” Servizio Biotecnologie, Largo R. Benzi, 10, 16132 Genova, Italy, on Jul. 30, 2002, where it was given identification number PD 02007.
(§1) In table 3 the cellular survival percentage was determined with the Trypan Blue exclusion method. […]
(§2) For treatment, the two types of cells were treated with different concentrations of the compounds for 1 or 5 hours and then with normal medium for a further 24 hours. The effects of the treatment were assessed as described previously for the inorganic toxicants.

[2] = test system: MMH/GH cells, Clone 11; details: for hGH secreted, 5 h: 5 h treatment
[3] = test system: MMH/GH cells, Clone 9; details: for hGH secreted, 5 h: 5 h treatment; for hGH secreted, 5 + 24 h: 5 h treatment + 24 h recovery
[4] = test system: primary hepatocytes (PHGH); assay: cellular survival of PHGH, Trypan Blue exclusion; type: cell-based, mice; set-up: % cellular survival, PHGH 1 + 24 h / % cellular survival, PHGH 5 + 24 / % vitality of the cells, PHGH 1 + 24 h / % vitality of the cells, PHGH 5 + 24 h: unit of the concentration uncertain; details: for % vitality of the cells, PHGH 1 + 24 h: 1 h treatment + 24 h normal medium; for % vitality of the cells, PHGH 5 + 24 h: 5 h treatment + 24 h normal medium
Text: (§3) This different behaviour is explained by the greater sensitivity to the toxicant of the PHGH with respect to the MMH/GH5 as shown by analysis of the cellular vitality performed with the Trypan Blue method (FIG. 1, graph B). […] Therefore the greater resistance of the cells MMH/GH/5 to the toxicants constitutes another evident advantage as it permits the exclusion of false negatives in which the non-release of hGH, due to cellular death, is interpreted as non-toxicity of the compound. When the supernatant is collected after 5 hours of treatment followed by 24 hours of culture with normal medium (FIG. 1 graph C) the PHGHs respond, at the lowest concentrations of the two toxicants, with high levels of secretion of hGH and, at the highest concentrations, with low levels of secretion of hGH (lower cellular survival, graph D).
as §1, §2

[5] = test system: MMH/GH5 cells (Clone 5); details: for hGH secreted, 5 h / hGH secreted, 5 + 24 h: Clone 5; for hGH secreted, 5 h: 5 h treatment; for hGH secreted, 5 + 24 h: 5 h treatment + 24 h recovery
[6] = test system: MMH/GH cells, Clone 4
[7] = test system: MMH/GH cells, Clone 10; details: for hGH secreted, 5 h: 5 h treatment; for hGH secreted, 5 + 24 h: 5 h treatment + 24 h recovery
[8] = test system: MMH/GH cells, Clone 2; details: for hGH secreted, 5 h: 5 h treatment; for hGH secreted, 5 + 24 h: 5 h treatment + 24 h recovery
[9] = test system: MMH/GH5 cells; assay: cellular survival of MMH/GH5, Trypan Blue exclusion; type: cell-based, mice; set-up: % cellular survival, MMHGH/5 1 + 24 h / % cellular survival, MMHGH/5 5 + 24 / % vitality of the cells, MMH/GH 1 + 24 h / % vitality of the cells, MMH/GH 5 + 24 h: unit of the concentration uncertain; details: for % vitality of the cells, MMH/GH 1 + 24 h: 1 h treatment + 24 h normal medium; for % vitality of the cells, MMH/GH 5 + 24 h: 5 h treatment + 24 h normal medium
Text: as §3, §1, §2

[10] = 50 (unit uncertain), Trypan Blue (Table 4)
[11] = 100 (unit uncertain), Trypan Blue

[Cl][Cd][Cl] [CdCl2]
release of hGH in the culture medium in relation to concentration of the toxicant ([1]; PHGH, 10^-5, 5x10^-5, 10^-4 M, 5 h, FIG. 1 graph A): inversely proportional | hGH secreted, 5 h ([2]; Clone 11, 5x10^-5 M (As2/Cd2)): 0 | hGH secreted, 5 + 24 h ([2]; Clone 11, 5x10^-5 M (As2/Cd2), 5 h treatment + 24 h recovery): 0 | hGH secreted, 5 h ([2]; Clone 11, 10^-4 M (As3/Cd3)): 0 | hGH secreted, 5 + 24 h ([2]; Clone 11, 10^-4 M (As3/Cd3), 5 h treatment + 24 h recovery): 0 | hGH secreted, 5 h ([2]; Clone 11, 10^-5 M (As1/Cd1)): 40 | hGH secreted, 5 + 24 h ([2]; Clone 11, 10^-5 M (As1/Cd1), 5 h treatment + 24 h recovery): 0 | hGH secreted, 5 h ([3]; 5x10^-5 M (As2/Cd2)): 200 | hGH secreted, 5 + 24 h ([3]; 5x10^-5 M (As2/Cd2)): 0 | hGH secreted, 5 h ([3]; 10^-4 M (As3/Cd3)): 5 | hGH secreted, 5 + 24 h ([3]; 10^-4 M (As3/Cd3)): 0 | hGH secreted, 5 h ([3]; 10^-5 M (As1/Cd1)): 0 | hGH secreted, 5 + 24 h ([3]; 10^-5 M (As1/Cd1)): 0 | survival of the PHGHs ([4]; highest concentrations of the toxicant, Trypan Blue, FIG. 1 graph B): practically nil | hGH secreted, 5 h ([5]; 5x10^-5 M (As2/Cd2)): 50 | hGH secreted, 5 + 24 h ([5]; 5x10^-5 M (As2/Cd2)): 40 | hGH secreted, 5 h ([5]; 10^-4 M (As3/Cd3)): 90 | hGH secreted, 5 + 24 h ([5]; 10^-4 M (As3/Cd3)): 20 | hGH secreted, 5 h ([5]; 10^-5 M (As1/Cd1)): 25 | hGH secreted, 5 + 24 h ([5]; 10^-5 M (As1/Cd1)): 25 | release of hGH in the culture medium in relation to concentration of the toxicant ([5]; MMH/GH5, 10^-5, 5x10^-5, 10^-4 M, 5 h, FIG. 1 graph A): directly proportional to the concentration of the toxicant | hGH secreted, 5 h ([6]; Clone 4, 5x10^-5 M (As2/Cd2), 5 h treatment): 0 | hGH secreted, 5 + 24 h ([6]; Clone 4, 5x10^-5 M (As2/Cd2), 5 h treatment + 24 h recovery): 0 | hGH secreted, 5 h ([6]; Clone 4, 10^-4 M (As3/Cd3), 5 h treatment): 0 | hGH secreted, 5 + 24 h ([6]; Clone 4, 10^-4 M (As3/Cd3), 5 h treatment + 24 h recovery): 0 | hGH secreted, 5 h ([6]; Clone 4, 10^-5 M (As1/Cd1), 5 h treatment): 0 | hGH secreted, 5 + 24 h ([6]; Clone 4, 10^-5 M (As1/Cd1), 5 h treatment + 24 h recovery): 0 | hGH secreted, 5 h ([7]; 5x10^-5 M (As2/Cd2)): 0 | hGH secreted, 5 + 24 h ([7]; 5x10^-5 M (As2/Cd2)): 12 | hGH secreted, 5 h ([7]; 10^-4 M (As3/Cd3)): 0 | hGH secreted, 5 + 24 h ([7]; 10^-4 M (As3/Cd3)): 7 | hGH secreted, 5 h ([7]; 10^-5 M (As1/Cd1)): 0 | hGH secreted, 5 + 24 h ([7]; 10^-5 M (As1/Cd1)): 25 | hGH secreted, 5 h ([8]; 5x10^-5 M (As2/Cd2)): 0 | hGH secreted, 5 + 24 h ([8]; 5x10^-5 M (As2/Cd2)): 4 | hGH secreted, 5 h ([8]; 10^-4 M (As3/Cd3)): 0 | hGH secreted, 5 + 24 h ([8]; 10^-4 M (As3/Cd3)): 0 | hGH secreted, 5 h ([8]; 10^-5 M (As1/Cd1)): 0 | hGH secreted, 5 + 24 h ([8]; 10^-5 M (As1/Cd1)): 0

O=[As][O-].[Na+] [NaAsO2]
hGH secreted, 5 + 24 h [2]: 0 | hGH secreted, 5 + 24 h [6]: 0 | hGH secreted, 5 h [6]: 0

Oc1c(Cl)c(Cl)c(O)c(Cl)c1Cl [TCHQ, TetraChloroHydroQuinone]
response in PHGH ([1]; compared with PCP, words): stronger response | % vitality of the cells, MMH/GH 1 + 24 h [9, 10]: 50% | % vitality of the cells, MMH/GH 5 + 24 h [9, 10]: 30% | % vitality of the cells, MMH/GH 1 + 24 h [9, 11]: 10% | % vitality of the cells, MMH/GH 5 + 24 h [9, 11]: 0% | % vitality of the cells, PHGH 1 + 24 h [4, 10]: 50% | % vitality of the cells, PHGH 5 + 24 h [4, 10]: 60% | % vitality of the cells, PHGH 1 + 24 h [4, 11]: 0% | % vitality of the cells, PHGH 5 + 24 h [4, 11]: 0% | response in MMH/GH5 ([5]; compared with PCP, words): stronger response
